Test results as given in patent US20240148745A1, “COMPOUNDS FOR USE IN PROGRESSIVE MULTIPLE SCLEROSIS” (FONDAZIONE CENTRO SAN RAFFAELE, priority 2021, published 2024).

Legend:
[1] = test system: rat oligodendrocyte progenitor CG4 line; assay: Differentiation assay on rat oligodendrocyte progenitor CG4 line (HCS, mCherry+); format: cell-based; conditions: 1 μM; for CG4 differentiation compared with 9cis-RA positive control: secondary screen of 49 selected compounds, 5 days
Excerpt: Primary validation on CG4 line toxicity and differentiation. An innovative OPC line was developed for fast and reliable high content screening (HCS) of small compounds inducing oligodendrocyte differentiation. The line was genetically engineered by lentiviral transduction of rat CG4 cells (PubMed=1613821; DOI=10.1002/jnr.490310125; Louis J. C., Magal E., Muir D., Manthorpe M., Varon S.; CG-4, a new bipotential glial cell line from rat brain, is capable of differentiating in vitro into either mature oligodendrocytes or type-2 astrocytes. J. Neurosci. Res. 31:193-204(1992) to express mCherry fluorescent reporter (Evercooren, Anne & Avellana-Adalid, V. & Vitry, Sandrine & Nait-Oumesmar, Brahim & Lachapelle, Francois. (1997). Expansion of Oligodendrocyte Progenitors for Myelin Repair. 10.1007/978-1-4615-5949-8_21) in mature oligodendrocytes only, and EGFP at all stage of the oligodendroglial lineage: both the generation of mature oligodendrocytes (wmNl-mCherry) and the morphological changes associated with differentiation (CMV-EGFP) can be therefore monitored in a single assay. mCherry expression occurred only in O4+/GalC+ differentiated oligodendrocytes and GFP was ubiquitously expressed at all developmental stages. The line so obtained was validated using compounds with well-established effects on oligodendrocyte differentiation (cAMP and T3). Cell-based assay was standardized on the HCS platform (ArrayScanXTI, Brain and Spine Institute (Paris), validating the pro-differentiation effects of clemastine^27 and 9cis-retinoic acid.^28 For HCS validation of 274 compounds identified through in silico screen, double-fluo CG4 line cells were plated in 96 well-plates, 6500 cells/cm^2 and left for 24 h in proliferation. The other day, compounds were added (1 μM) for next 5 days of differentiation, with ⅔ medium changed after 3 days. 9-cis Retinoic Acid (9cis-RA; […]) served as a positive control, negative controls were basal (N1) medium and vehicle (basal+0.1% DMSO). Each compound was tested in triplicate and were imaged with ArrayScanXTI system (35 fields/well) after 5 days of differentiation.
FIG. 4 provides a schematic representation of High Content Screening (HCS) validation of the 274 compounds identified through in silico screening using CG4 line. […] In addition, the whole short list of 160 non-toxic compounds were screened using the CG4 high content phenotypic assay to further confirm the data from primary screening and to potentially select additional compounds with pro-myelinating activities. From this screening of the short list, 49 hit compounds were identified that increase differentiation either of CG4 cells or primary OPCs (FIG. 6).

rat primary OPC cultures = assay: Differentiation of rat primary OPC into MBP+ OLs; format: cell-based; conditions: 96 h, 4 days of differentiation, read-out: MBP+ differentiation (MBP+/SOX10+ OLs plus compounds / plus basal medium)
Description: Secondary validation on primary rat OPC differentiation. Re-validation of the best performing compounds promoting OPC differentiation (fold change >1.5) was performed on primary rat OPC cultures in 96 well-plate run in triplicates by triple immunolabeling for CNPase, MBP and SOX10 as a readout. Compounds at […] were added for 4 days of differentiation and then cell cultures were imaged with ArrayScanXTI platform, number of MBP+OLs were quantified by semi-automated software. Basal medium served as a negative control, 9 cis-RA ([…]) was a positive control.
Re-validation of the 49 compounds selected from the short list (160 compounds) using rat primary OPC cultures (compounds tested in triplicates in 3 independent experiments. The secondary validation screen of these compounds performed on rat primary OPC cultures selected 17 best lead compounds with a pro-differentiation activity (MBP+/SOX10+OLs plus compounds/MBP+SOX10+ plus basal medium fold increase) induced a strong differentiation into MBP+OLs (fold increase >1.6). Results are shown in FIG. 7.

[2] = test system: murine cortical neurons (14 DIV); assay: NMDA-mediated neuroprotective assay (CCK8 viability); format: cell-based, mouse; conditions: 1 μM, 3 h pre-treatment, NMDA 8 μM 24 h, p<0.05
Description: To assess neuroprotective activity of 160 selected non-toxic compounds on primary murine cortical neurons, obtained as described in the previous paragraph, ([…]), cultures were pre-treated with 1 μM compounds for either 3 or 24 hours, followed by 24 hours chronic stimulation with NMDA (8 μM) to induce neuronal damage. Each test plate included: a negative control (untreated), vehicle-treated control (0.02% vol/vol DMSO), a positive neurotoxic control—staurosporine 0.1 μM, a stressor—NMDA 8 μM, a positive neuroprotective control—NAC 300 μM, and a combination of stressor +neuroprotective molecule (NMDA+NAC). Cell viability was measured with Cell Counting Kit-8 assay compared to NMDA-treated control.
The potential neuroprotective activity of 160 selected non-toxic compounds was evaluated on murine cortical neurons (14 DIV) with either 3 h (FIG. 13) or 24 h compounds pre-treatment (FIG. 14). In assay with 3 h pre-treatment, 17 compounds were identified as potential NMDA-neuroprotective hits (marked with black asterisk in FIG. 13, stat. significant at p<0.05, Kruskal-Wallis test with post-hoc two-stage linear step-up procedure of Benjamini, Krieger and Yekutieli multiple comparison correction).

mouse cortical neurons = assay: Morphological integrity evaluation, NMDA 8 μM (MAP2 neurite length and branching); format: cell-based; conditions: 3 h pre-treatment, NMDA 8 μM 24 h; Z>0.5 criteria
Description: Apart of viability/metabolic readout in NMDA-mediated neurotoxicity assay, a neuronal structural integrity was evaluated by MAP2 staining. Mouse cortical neurons (14 DIV) cultured in MW96 plates were fixed with 4% paraformaldehyde (PFA). Fixed cells were incubated with blocking solution (PBS 1×, donkey serum 5%, Triton 0.1%) for 1-hour, primary antibody (rabbit α-MAP2, 1:250, Millipore) was applied in the same solution overnight at +4° C. […] Nuclei were stained with 4′-6-diamidino-2-phenylindole (DAPI, Roche). Microscopy was performed using ArrayScan™XTI (ThermoFisher) imaging platform. 15 images per well were acquired and analyzed by CellProfiler. Total neurite length and the total number of non-trunk branches were analyzed. Total neurite length and the total number of branching were evaluated from 15 images/well, each compound or control was tested in triplicates. The total neurite length and total number of branches were converted to a standardized Z-score using formula: Xij=((Xij−μ)/σ), where xij is the raw measurement of the compound located in well (i, j), and μ and σ are, respectively, the mean and the standard deviation of all measurements of the plate.^31
The morphological integrity of mouse cortical neurons upon chronic 24 h NMDA (8 μM) exposure with compounds pre-treatment (3 h) in preventive regimen was evaluated. Control (basal), DMSO, N-acetylcysteine (NAC) served as positive controls, while staurosporine and NMDA were negative controls.

| SMILES | CG4 differentiation compared with 9cis-RA positive control [1] | fold induction at 1 µM (rat primary OPC cultures) | neuroprotection of viability/metabolic activity against NMDA [2] | further results |
| --- | --- | --- | --- | --- |
| CN1[C@@H]2CC[C@H]1C[C@@H](OC(c1ccccc1)c1ccccc1)C2 [BENZATROPINE] | promoting differentiation significantly higher than 9cis-RA positive control | > 1.6 |  | CG4 differentiation, fold increase relative to control [1]: over 1.5 fold |
| COc1cc(OC)nc(O[C@H](C(=O)O)C(OC)(c2ccccc2)c2ccccc2)n1 | promoting differentiation significantly higher than 9cis-RA positive control | > 1.6 |  |  |
| C[C@H](Nc1ncnc2[nH]cnc12)c1cc2ccc(F)cc2nc1-c1ccccn1 [AMG-319] |  |  | hit compounds |  |
| CN1[C@@H]2CC[C@H]1C[C@@H](OC(=O)[C@H](CO)c1ccccc1)C2 [Hyoscyamine] |  |  | hit compounds | preservation of neurite length and network integrity (branching) (mouse cortical neurons): preserved both neurite length and the network integrity (branching) |
| CC1(C)O[C@@H]2C[C@H]3[C@@H]4C[C@H](F)C5=CC(=O)C=C[C@]5(C)[C@@]4(F)[C@@H](O)C[C@]3(C)[C@]2(C(=O)CO)O1 [Fluocinolone acetonide, Fluocinolone Acetonide] |  |  | hit compounds |  |
| CNC(=O)c1cccc2cc(Oc3ccnc4cc(OCC5(N)CC5)c(OC)cc34)ccc12 [LUCITANIB] | promoting differentiation significantly higher than 9cis-RA positive control | > 1.6 |  |  |
| N[C@@H](CO)C(=O)O [L-Serine] |  |  | hit compounds |  |
| Cc1[nH]c(/C=C2\C(=O)Nc3ccc(F)cc32)c(C)c1C(=O)NC[C@H](O)CN1CCOCC1 [SU14813] |  | > 1.6 |  |  |
| NC(=O)[C@@H]1CC[C@H](c2ccc(OCc3ccccc3F)cc2)N1 [Raxatrigine] |  |  | hit compounds | preservation of neurite length and network integrity (branching) (mouse cortical neurons): preserved both neurite length and the network integrity (branching) |
| Nc1ncnc2nc[nH]c12 [Adenine] |  |  | hit compounds | preservation of neurite length and network integrity (branching) (mouse cortical neurons): preserved both neurite length and the network integrity (branching) |
| CC(C)(C)c1cc(NC(=O)Nc2ccc(-c3cn4c(n3)sc3cc(OCCN5CCOCC5)ccc34)cc2)no1 [Quizartinib] | promoting differentiation significantly higher than 9cis-RA positive control | > 1.6 |  |  |
| COCCNCc1ccc(-c2cc3nccc(Oc4ccc(NC(=S)NC(=O)Cc5ccc(F)cc5)cc4F)c3s2)nc1 [MGCD-265] |  | > 1.6 |  |  |
| CCOC(=O)c1cnc2c(cnn2CC)c1NN=C(C)C [Etazolate] |  | > 1.6 |  |  |
| Cn1c(=O)c(Oc2ccc(F)cc2F)cc2cnc(NC(CCO)CCO)nc21 [Pamapimod] |  |  | hit compounds |  |
| CC(=O)Nc1cccc2c1c(Sc1ccc(Cl)cc1)c(C)n2CC(=O)O [AZD1981] |  |  | hit compounds |  |
| FC(F)(F)c1ccc(CNc2ccc(Cc3c[nH]c4ncc(Cl)cc34)cn2)cn1 [PLX-3397] | promoting differentiation significantly higher than 9cis-RA positive control | > 1.6 |  |  |
